Assay results as given in PubChem BioAssay (NCI).
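96-well plates; 48 h exposure; 5 concentrations. Endpoints by linear interpolation between flanking doses. Not reached: highest tested concentration assigned. At the GI50, growth is halved. TGI marks complete inhibition of growth.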

Assays:
Test in all cases: NCI-60 cell line screen, 48 h
SK-MEL-28 melanoma = test system: SK-MEL-28 melanoma
OVCAR-8 ovarian = test system: OVCAR-8 ovarian
SF-295 CNS = test system: SF-295 CNS
HS 578T breast = test system: HS 578T breast
IGROV1 ovarian = test system: IGROV1 ovarian
MCF7 breast = test system: MCF7 breast
SNB-19 CNS = test system: SNB-19 CNS
786-0 renal = test system: 786-0 renal
U251 CNS = test system: U251 CNS
LOX IMVI melanoma = test system: LOX IMVI melanoma

Structure (SMILES) | TGI (SK-MEL-28 melanoma) | TGI (OVCAR-8 ovarian) | TGI (SF-295 CNS) | TGI (HS 578T breast) | TGI (IGROV1 ovarian) | TGI (MCF7 breast) | TGI (SNB-19 CNS) | TGI (786-0 renal) | TGI (U251 CNS) | TGI (LOX IMVI melanoma) | GI50 (SK-MEL-28 melanoma) | GI50 (HS 578T breast) | GI50 (OVCAR-8 ovarian) | GI50 (SF-295 CNS) | GI50 (IGROV1 ovarian) | GI50 (SNB-19 CNS) | GI50 (U251 CNS) | GI50 (LOX IMVI melanoma) | GI50 (MCF7 breast)
Cc1cn2c(C)csc2c1P(=O)(OC(C)C)OC(C)C | > 100 µM | > 100 µM | > 100 µM | > 100 µM | > 100 µM | > 100 µM | > 100 µM | > 100 µM | > 100 µM | > 100 µM |  |  |  |  |  |  |  |  | 
COC(=O)c1cc(C)ccc1CC(Cc1ccc(C)cc1)C(=O)OC (stereo not given) | > 100 µM | > 100 µM | > 100 µM | > 100 µM | > 100 µM | > 31.6 µM | > 100 µM | > 100 µM | > 100 µM | > 100 µM |  |  |  |  |  |  |  |  | 
COC(=O)C1=C(C)NC(C)=C([N+](=O)[O-])C1c1cccc(N=O)c1 (stereo not given) | 32 µM | 32.1 µM | 51.5 µM | 39.1 µM | 29.5 µM | 38.5 µM | > 100 µM | 27.2 µM | 32 µM | 30 µM |  |  |  |  |  |  |  |  | 
c1csc(-c2c3ccc(=[N+]4CCCCC4)cc-3oc3cc(N4CCCCC4)ccc23)c1 | 0.293 µM |  |  | 0.565 µM |  |  |  |  |  |  | 0.143 µM | 0.0563 µM |  |  |  |  |  |  | 
Cc1cc2nc(-c3cc(C(C)(C)C)c(O)c(C(C)(C)C)c3)[nH]c2cc1C | > 100 µM | > 52.8 µM | > 100 µM | > 100 µM | > 100 µM |  | > 100 µM | 2.73 µM | > 34.3 µM | 28.6 µM |  |  |  |  |  |  |  |  | 
CC12CC1C(c1cccc([N+](=O)[O-])c1)(c1cccc([N+](=O)[O-])c1)N=N2 (stereo not given) | > 100 µM | 74.4 µM | > 100 µM | 78 µM | 60.5 µM | > 100 µM | > 100 µM | 52.7 µM | 51 µM | 27.8 µM |  |  |  |  |  |  |  |  | 
COc1ccc(/C=N/N2C(=O)c3c(N)c(C#N)c(-c4ccccc4)c(-c4ccccc4)c3C2=O)cc1 | > 100 µM | > 100 µM | > 100 µM | > 100 µM | > 100 µM | > 100 µM | > 100 µM | > 100 µM | > 100 µM | > 100 µM |  |  |  |  |  |  |  |  | 
C=C(C)[C@@]1(O[Si](C)(C)C)CCCC[C@@H]1CC(Sc1ccccc1)Sc1ccccc1 | 37 µM | 31.7 µM | 25.5 µM | 29.7 µM | 32.7 µM | 27.6 µM | 30.6 µM | 28.6 µM | 30.7 µM | 37.2 µM |  |  |  |  |  |  |  |  | 
O=C([CH-]C(=O)c1ccccc1)c1ccccc1.O=C([CH-]C(=O)c1ccccc1)c1ccccc1.[O]=[U+2]=[O] | 19.9 µM | > 100 µM | 4.29 µM |  | 12.6 µM |  | 18.9 µM |  | > 100 µM | > 100 µM | 3.49 µM |  | 3.02 µM | 1.81 µM | 3.33 µM | 3.36 µM | 3.06 µM | 2.7 µM | 
O=c1n(Cc2ccccc2)c(=O)n2c(=O)n(Cc3ccccc3)c(=O)n12 | > 100 µM | > 100 µM | > 100 µM | > 100 µM |  | > 100 µM | > 100 µM | > 100 µM | > 100 µM | > 100 µM |  |  |  |  |  |  |  |  | 
Cc1cc(/N=C/c2ccc(C#N)cc2)n(-c2ccccc2)n1 | > 100 µM | > 100 µM | > 100 µM | > 100 µM | > 100 µM | > 100 µM | > 100 µM | > 100 µM | > 100 µM | > 100 µM |  |  |  |  |  |  |  |  | 
Clc1ccc(Cl)c(SCCCN2CCNCC2)c1 | 26.9 µM | 46 µM | 37.1 µM | 35.9 µM | 42.2 µM | 40 µM | 34.4 µM | 52.1 µM | 34.6 µM | 35.8 µM |  |  |  |  |  |  |  |  | 
COc1cc2c(c(O)c1O)-c1ccc(OC)c(=O)cc1C(NC(C)=O)CC2 (stereo not given) | > 100 µM | > 100 µM | 41.4 µM |  | > 100 µM |  | > 100 µM | > 82.8 µM | 25.8 µM | 34.8 µM |  |  |  |  |  |  |  |  | 
S=C1CC(c2ccccc2)Sc2ccc(Cl)cc2N1 (stereo not given) | > 100 µM | > 100 µM | 92.6 µM | 48.3 µM | > 100 µM | > 100 µM | > 100 µM | 59.5 µM | > 100 µM | > 100 µM |  |  |  |  |  |  |  |  | 
O=C1CCCc2cc3c(cc21)CC1(C3)Cc2ccc3c(c2C1)C(=O)CCC3 (stereo not given) | 80.6 µM | > 100 µM | > 100 µM | > 100 µM | > 100 µM | 42.8 µM | > 100 µM | > 100 µM | > 100 µM | > 100 µM |  |  |  |  |  |  |  |  | 
Nc1nc(Nc2ccccc2)sc1C(=O)c1c[nH]c2ccccc12 | 26.3 µM |  |  | 42.5 µM | 31.2 µM | 26.9 µM | 20.3 µM | 18.2 µM | 23.6 µM | 64.8 µM |  |  |  |  |  |  |  |  | 
Cc1ccc(-c2c(C#N)c(-c3ccc([N+](=O)[O-])cc3)c(C#N)c(=O)n2NS(=O)(=O)c2ccccc2)cc1 | > 100 µM | > 100 µM | > 100 µM | 33.1 µM | > 100 µM | 54.1 µM | > 100 µM | > 100 µM | > 100 µM | 83 µM |  |  |  |  |  |  |  |  | 
COC(=O)C1(Cc2ccc3c(c2)CCC3)Cc2cc3c(cc2C1)CCC3 | > 100 µM | > 100 µM | > 100 µM | > 100 µM | > 100 µM | 58.5 µM | > 100 µM | > 100 µM | > 100 µM | 42.3 µM |  |  |  |  |  |  |  |  | 
COc1ccc(-c2csc(NC(=O)CSc3nc(C)c(-c4ccccc4)n3Nc3ccccc3)n2)cc1 | > 100 µM | > 100 µM | > 100 µM | > 100 µM | > 100 µM | > 100 µM | > 100 µM |  | > 100 µM | > 100 µM | > 100 µM | 6.69 µM | 3.48 µM | 0.566 µM | 4.25 µM | > 100 µM | > 100 µM | 5.85 µM | 8.25 µM
Cc1c2ccncc2c(C)c2c1[nH]c1ccccc12 | 3 µM | 2.32 µM | 2 µM | 5.45 µM | 3.76 µM | 2.54 µM | 2.09 µM |  | 2.08 µM | 4.2 µM |  | 1.37 µM |  |  |  |  |  |  | 
